# System: HSV-1
# Assay: viral DNA synthesis, slot-blot hybridization with radiation-labeled probe in Vero cells
# Assay type: cell-based, herpes simplex virus type 1 (strain 7401 H)
# Details: HSV-1 in Vero cells; 0, 5, 10 or 20 µg/mℓ; even at 20 µg/mℓ; Fig. 2
# Description: Finally, in order to examine effects of moronic acid on the viral synthesis ability, the amount of virus particles in cultured cells was measured by the slot-blot hybridization described in J. Traditional Med., 12, 187 - 194 (1995). Using a radiation-labeled probe, viral DNA synthesis ability of herpesvirus strains HSV-1 and AP^r1 was measured just after adsorption of the viruses to animal cells (Vero cells) or when concentration of 3-oxo-olean-18-en-28-oic acid (moronic acid) was changed (0, 5, 10 or 20 µg/mℓ), with the results shown as a chart in Fig. 2 (photograph).
# In Fig. 2, rough amounts of each herpesvirus are shown by the strength of black parts. For the sake of comparison, DNA copy number of a virus TK^- is shown on the right-side column as a reference strength.
smiles,measurement,value
"CC1(C)C=C2[C@H]3CC[C@@H]4[C@@]5(C)CCC(=O)C(C)(C)[C@@H]5CC[C@@]4(C)[C@]3(C)CC[C@@]2(C(=O)O)CC1 [Moronic acid, 3-oxo-olean-18-en-28-oic acid]",effect to inhibit virus DNA synthesis,not found

# — patent publication EP0878193A1, “REMEDIES FOR HERPESVIRUS INFECTION CAUSED BY HERPESVIRUS AND PREVENTIVES FOR RECURRENCE OF THE INFECTION BOTH CONTAINING TRITERPENE DERIVATIVES AS THE ACTIVE INGREDIENT” (Showa Shell Sekiyu K.K., priority 1996, dated 1997)
